According to PMC8500670, “A selective WDR5 degrader inhibits acute myeloid leukemia in patient-derived mouse models” (Science translational medicine, 2021):

How the values were obtained:
Lck = Lck (Homo sapiens, UniProt P06239); test: biochemical; set-up: kinase selectivity panel, single concentration, duplicate
Protocol: (§1) We next assessed selectivity of MS67 against 22 protein methyltransferases (table S2) and a broad panel of common drug targets including 45 kinases (table S3) and 44 G protein–coupled receptors (GPCR), ion channels, and transporters (table S4). […] We subsequently determined that MS67 had moderate binding affinity (Ki = 1.0 ± 0.8 μM) to Sigma 2 receptor (fig. S10).

cSRC = biological target: T1, cSRC (Homo sapiens, UniProt P12931); test: biochemical; set-up: kinase selectivity panel, single concentration, duplicate
T1 construct: gene SRC
Protocol: as §1

TAO2 = biological target: T2, TAO2 (Homo sapiens, UniProt Q9UL54); test: biochemical; set-up: kinase selectivity panel, single concentration, duplicate
T2 construct: gene TAOK2
Protocol: as §1

CaMKIIα = biological target: T3, CaMKIIα (Homo sapiens, UniProt Q9UQM7); test: biochemical; set-up: kinase selectivity panel, single concentration, duplicate
T3 construct: gene CAMK2A
Protocol: as §1

Abl = biological target: T4, Abl (Homo sapiens, UniProt P00519); test: biochemical; set-up: kinase selectivity panel, single concentration, duplicate
T4 construct: gene ABL1
Protocol: as §1

MAPK2 = biological target: T5, MAPK2 (Homo sapiens, UniProt P28482); test: biochemical; set-up: kinase selectivity panel, single concentration, duplicate
T5 construct: gene MAPK1
Protocol: as §1

PKA = biological target: T6, PKA (Homo sapiens, UniProt P17612); test: biochemical; set-up: kinase selectivity panel, single concentration, duplicate
T6 construct: gene PRKACA
Protocol: as §1

CHK2 = biological target: T7, CHK2 (Homo sapiens, UniProt O96017); test: biochemical; set-up: kinase selectivity panel, single concentration, duplicate
T7 construct: gene CHEK2
Protocol: as §1

PAK4 = PAK4 (Homo sapiens, UniProt O96013); test: biochemical; set-up: kinase selectivity panel, single concentration, duplicate
Protocol: as §1

FGFR1 = FGFR1 (Homo sapiens, UniProt P11362); test: biochemical; set-up: kinase selectivity panel, single concentration, duplicate
Protocol: as §1

Mnk2 = biological target: T8, Mnk2 (Homo sapiens, UniProt Q9HBH9); test: biochemical; set-up: kinase selectivity panel, single concentration, duplicate
T8 construct: gene MKNK2
Protocol: as §1

CDK1/cyclinB = CDK1/cyclinB (Homo sapiens, UniProt P06493); test: biochemical; set-up: kinase selectivity panel, single concentration, duplicate
Protocol: as §1

GSK3β = biological target: T9, GSK3β (Homo sapiens, UniProt P49841); test: biochemical; set-up: kinase selectivity panel, single concentration, duplicate
T9 construct: gene GSK3B
Protocol: as §1

Aurora-A = biological target: T10, Aurora-A (Homo sapiens, UniProt O14965); test: biochemical; set-up: kinase selectivity panel, single concentration, duplicate
T10 construct: gene AURKA
Protocol: as §1

KDR = KDR (Homo sapiens, UniProt P35968); test: biochemical; set-up: kinase selectivity panel, single concentration, duplicate
Protocol: as §1

SGK = biological target: T11, SGK (Homo sapiens, UniProt O00141); test: biochemical; set-up: kinase selectivity panel, single concentration, duplicate
T11 construct: gene SGK1
Protocol: as §1

SAPK2a = biological target: T12, SAPK2a (Homo sapiens, UniProt Q16539); test: biochemical; set-up: kinase selectivity panel, single concentration, duplicate
T12 construct: gene MAPK14
Protocol: as §1

JAK3 = JAK3 (Homo sapiens, UniProt P52333); test: biochemical; set-up: kinase selectivity panel, single concentration, duplicate
Protocol: as §1

EGFR = EGFR (Homo sapiens, UniProt P00533); test: biochemical; set-up: kinase selectivity panel, single concentration, duplicate
Protocol: as §1

Pim-2 = biological target: T13, Pim-2 (Homo sapiens, UniProt Q9P1W9); test: biochemical; set-up: kinase selectivity panel, single concentration, duplicate
T13 construct: gene PIM2
Protocol: as §1

CDK2/cyclinA = CDK2/cyclinA (Homo sapiens, UniProt P24941); test: biochemical; set-up: kinase selectivity panel, single concentration, duplicate
Protocol: as §1

NEK2 = NEK2 (Homo sapiens, UniProt P51955); test: biochemical; set-up: kinase selectivity panel, single concentration, duplicate
Protocol: as §1

ROCK-I = biological target: T14, ROCK-I (Homo sapiens, UniProt Q13464); test: biochemical; set-up: kinase selectivity panel, single concentration, duplicate
T14 construct: gene ROCK1
Protocol: as §1

MAP4K4 = MAP4K4 (Homo sapiens, UniProt O95819); test: biochemical; set-up: kinase selectivity panel, single concentration, duplicate
Protocol: as §1

PKBα = biological target: T15, PKBα (Homo sapiens, UniProt P31749); test: biochemical; set-up: kinase selectivity panel, single concentration, duplicate
T15 construct: gene AKT1
Protocol: as §1

PDK1 = biological target: T16, PDK1 (Homo sapiens, UniProt O15530); test: biochemical; set-up: kinase selectivity panel, single concentration, duplicate
T16 construct: gene PDPK1
Protocol: as §1

JNK1α1 = biological target: T17, JNK1α1 (Homo sapiens, UniProt P45983); test: biochemical; set-up: kinase selectivity panel, single concentration, duplicate
T17 construct: gene MAPK8; isoform alpha1
Protocol: as §1

TRKA = biological target: T18, TRKA (Homo sapiens, UniProt P04629); test: biochemical; set-up: kinase selectivity panel, single concentration, duplicate
T18 construct: gene NTRK1
Protocol: as §1

von Hippel–Lindau (VHL) = von Hippel–Lindau (VHL) (Homo sapiens, UniProt P40337); test: ITC; […]-Å crystal structure of WDR5-MS67-VCB ternary complex; assay type: binding
Chain of von Hippel–Lindau (VHL) (P40337 whole entry): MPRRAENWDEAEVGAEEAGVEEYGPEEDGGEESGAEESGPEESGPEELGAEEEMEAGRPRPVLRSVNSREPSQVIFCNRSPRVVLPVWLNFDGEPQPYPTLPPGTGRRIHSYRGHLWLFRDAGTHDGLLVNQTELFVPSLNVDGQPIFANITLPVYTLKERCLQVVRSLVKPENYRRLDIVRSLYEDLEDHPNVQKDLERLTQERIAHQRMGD
Chain of von Hippel–Lindau (VHL) (Q15369 whole entry partner): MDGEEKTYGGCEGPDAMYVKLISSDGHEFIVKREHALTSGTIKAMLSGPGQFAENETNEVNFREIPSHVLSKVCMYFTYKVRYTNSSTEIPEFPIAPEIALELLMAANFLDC
Chain of von Hippel–Lindau (VHL) (Q15370 whole entry partner): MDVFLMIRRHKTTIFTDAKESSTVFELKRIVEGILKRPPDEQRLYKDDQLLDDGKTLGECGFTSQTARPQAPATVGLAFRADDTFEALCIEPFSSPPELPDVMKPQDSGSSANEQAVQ

T7 sequence (O96017 whole entry): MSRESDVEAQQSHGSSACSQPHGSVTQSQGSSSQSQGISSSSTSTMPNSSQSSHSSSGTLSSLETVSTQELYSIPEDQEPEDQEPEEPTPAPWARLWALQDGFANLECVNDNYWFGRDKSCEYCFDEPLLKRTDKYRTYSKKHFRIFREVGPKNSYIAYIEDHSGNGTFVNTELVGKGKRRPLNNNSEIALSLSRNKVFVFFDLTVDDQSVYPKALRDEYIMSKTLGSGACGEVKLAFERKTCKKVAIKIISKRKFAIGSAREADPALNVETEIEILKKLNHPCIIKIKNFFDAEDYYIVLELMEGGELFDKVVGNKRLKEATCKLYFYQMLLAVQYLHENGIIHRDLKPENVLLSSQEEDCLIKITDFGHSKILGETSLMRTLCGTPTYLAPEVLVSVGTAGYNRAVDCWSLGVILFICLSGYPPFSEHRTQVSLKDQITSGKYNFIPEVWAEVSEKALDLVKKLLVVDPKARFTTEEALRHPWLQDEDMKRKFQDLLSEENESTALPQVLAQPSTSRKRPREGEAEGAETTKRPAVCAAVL
T4 sequence (P00519 whole entry): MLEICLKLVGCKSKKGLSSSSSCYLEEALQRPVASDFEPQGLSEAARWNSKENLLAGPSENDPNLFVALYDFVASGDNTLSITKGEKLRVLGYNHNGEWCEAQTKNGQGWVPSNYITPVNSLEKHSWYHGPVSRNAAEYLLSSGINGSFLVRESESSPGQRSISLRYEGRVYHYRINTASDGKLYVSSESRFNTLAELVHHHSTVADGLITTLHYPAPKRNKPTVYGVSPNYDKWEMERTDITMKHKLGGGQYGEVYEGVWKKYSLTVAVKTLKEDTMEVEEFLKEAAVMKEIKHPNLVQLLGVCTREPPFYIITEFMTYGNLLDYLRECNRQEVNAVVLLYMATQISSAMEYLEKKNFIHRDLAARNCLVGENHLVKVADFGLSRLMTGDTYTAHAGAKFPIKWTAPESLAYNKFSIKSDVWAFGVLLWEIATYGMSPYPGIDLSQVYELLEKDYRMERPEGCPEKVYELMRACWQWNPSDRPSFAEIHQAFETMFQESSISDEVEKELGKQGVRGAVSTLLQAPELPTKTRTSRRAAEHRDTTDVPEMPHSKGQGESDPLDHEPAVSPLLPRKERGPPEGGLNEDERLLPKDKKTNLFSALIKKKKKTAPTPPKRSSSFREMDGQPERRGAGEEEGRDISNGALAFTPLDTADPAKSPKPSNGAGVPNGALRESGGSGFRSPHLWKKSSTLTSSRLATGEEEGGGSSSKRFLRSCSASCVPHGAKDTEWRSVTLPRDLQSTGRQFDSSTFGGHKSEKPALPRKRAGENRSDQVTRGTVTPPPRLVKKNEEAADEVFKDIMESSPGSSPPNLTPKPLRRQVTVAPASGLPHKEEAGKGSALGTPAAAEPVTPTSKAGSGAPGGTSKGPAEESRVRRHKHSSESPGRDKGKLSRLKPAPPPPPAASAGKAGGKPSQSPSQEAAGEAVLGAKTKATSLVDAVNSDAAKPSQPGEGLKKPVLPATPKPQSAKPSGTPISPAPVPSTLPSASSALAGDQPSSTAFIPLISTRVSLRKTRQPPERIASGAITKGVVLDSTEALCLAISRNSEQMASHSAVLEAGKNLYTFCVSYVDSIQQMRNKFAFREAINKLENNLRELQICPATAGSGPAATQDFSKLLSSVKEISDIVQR
T8 sequence (Q9HBH9 whole entry): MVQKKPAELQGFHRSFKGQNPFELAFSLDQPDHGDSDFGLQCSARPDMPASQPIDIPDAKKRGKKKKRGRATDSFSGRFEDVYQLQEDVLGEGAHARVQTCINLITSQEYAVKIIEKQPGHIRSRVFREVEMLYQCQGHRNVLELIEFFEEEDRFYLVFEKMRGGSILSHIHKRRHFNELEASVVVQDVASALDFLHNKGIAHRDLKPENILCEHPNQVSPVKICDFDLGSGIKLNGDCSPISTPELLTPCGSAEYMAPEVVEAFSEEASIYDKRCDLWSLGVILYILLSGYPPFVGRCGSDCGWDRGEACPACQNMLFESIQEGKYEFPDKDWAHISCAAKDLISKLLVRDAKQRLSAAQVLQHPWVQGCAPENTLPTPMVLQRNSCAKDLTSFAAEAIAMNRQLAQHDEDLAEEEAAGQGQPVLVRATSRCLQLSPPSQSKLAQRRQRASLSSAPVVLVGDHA
Chain of PAK4 (O96013 whole entry): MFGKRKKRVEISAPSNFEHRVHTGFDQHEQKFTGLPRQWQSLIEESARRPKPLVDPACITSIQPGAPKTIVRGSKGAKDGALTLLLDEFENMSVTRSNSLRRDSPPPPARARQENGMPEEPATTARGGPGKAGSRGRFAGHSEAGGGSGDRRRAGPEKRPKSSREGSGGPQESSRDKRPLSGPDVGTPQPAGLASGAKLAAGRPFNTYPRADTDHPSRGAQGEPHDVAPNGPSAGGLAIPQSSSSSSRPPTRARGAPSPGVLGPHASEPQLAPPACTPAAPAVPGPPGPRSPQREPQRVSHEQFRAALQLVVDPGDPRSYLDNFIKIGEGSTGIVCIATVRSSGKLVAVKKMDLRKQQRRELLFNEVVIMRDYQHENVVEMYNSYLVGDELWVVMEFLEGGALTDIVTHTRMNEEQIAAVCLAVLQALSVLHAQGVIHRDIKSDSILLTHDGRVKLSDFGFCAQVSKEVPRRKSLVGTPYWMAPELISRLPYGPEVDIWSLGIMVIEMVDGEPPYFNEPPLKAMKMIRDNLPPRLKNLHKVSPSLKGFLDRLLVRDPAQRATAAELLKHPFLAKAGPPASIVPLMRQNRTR
T10 sequence (O14965 whole entry): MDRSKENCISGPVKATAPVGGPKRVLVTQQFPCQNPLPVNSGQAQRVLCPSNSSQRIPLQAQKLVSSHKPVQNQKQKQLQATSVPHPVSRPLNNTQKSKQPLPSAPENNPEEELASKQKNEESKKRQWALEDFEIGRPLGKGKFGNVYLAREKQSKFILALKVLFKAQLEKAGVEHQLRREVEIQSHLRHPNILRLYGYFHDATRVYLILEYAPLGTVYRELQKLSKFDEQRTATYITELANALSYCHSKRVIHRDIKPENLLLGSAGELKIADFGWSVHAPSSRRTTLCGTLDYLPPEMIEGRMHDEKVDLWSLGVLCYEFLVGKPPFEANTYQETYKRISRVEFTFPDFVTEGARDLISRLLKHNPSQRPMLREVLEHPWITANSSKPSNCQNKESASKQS
Chain of FGFR1 (P11362 whole entry): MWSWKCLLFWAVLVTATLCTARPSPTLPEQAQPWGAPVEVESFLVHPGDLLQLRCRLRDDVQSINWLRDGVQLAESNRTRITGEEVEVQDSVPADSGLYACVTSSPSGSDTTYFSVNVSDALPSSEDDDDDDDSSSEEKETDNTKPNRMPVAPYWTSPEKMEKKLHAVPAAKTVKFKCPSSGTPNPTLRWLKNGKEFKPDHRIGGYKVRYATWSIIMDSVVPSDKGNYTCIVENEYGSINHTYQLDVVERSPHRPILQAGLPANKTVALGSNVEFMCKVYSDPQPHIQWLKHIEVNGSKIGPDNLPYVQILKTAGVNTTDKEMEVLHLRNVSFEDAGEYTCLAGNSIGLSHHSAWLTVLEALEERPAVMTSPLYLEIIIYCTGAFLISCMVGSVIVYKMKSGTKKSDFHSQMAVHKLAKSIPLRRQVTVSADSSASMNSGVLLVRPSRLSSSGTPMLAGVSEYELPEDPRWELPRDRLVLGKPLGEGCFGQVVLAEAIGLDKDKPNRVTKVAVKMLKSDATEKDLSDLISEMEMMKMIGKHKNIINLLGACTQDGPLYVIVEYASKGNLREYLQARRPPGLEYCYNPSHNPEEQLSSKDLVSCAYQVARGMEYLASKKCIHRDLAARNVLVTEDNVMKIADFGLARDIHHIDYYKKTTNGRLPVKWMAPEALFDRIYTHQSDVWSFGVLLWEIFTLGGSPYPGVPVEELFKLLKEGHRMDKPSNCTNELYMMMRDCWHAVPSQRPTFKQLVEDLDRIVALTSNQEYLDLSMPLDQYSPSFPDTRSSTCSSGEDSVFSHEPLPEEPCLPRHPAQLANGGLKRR
T9 sequence (P49841 whole entry): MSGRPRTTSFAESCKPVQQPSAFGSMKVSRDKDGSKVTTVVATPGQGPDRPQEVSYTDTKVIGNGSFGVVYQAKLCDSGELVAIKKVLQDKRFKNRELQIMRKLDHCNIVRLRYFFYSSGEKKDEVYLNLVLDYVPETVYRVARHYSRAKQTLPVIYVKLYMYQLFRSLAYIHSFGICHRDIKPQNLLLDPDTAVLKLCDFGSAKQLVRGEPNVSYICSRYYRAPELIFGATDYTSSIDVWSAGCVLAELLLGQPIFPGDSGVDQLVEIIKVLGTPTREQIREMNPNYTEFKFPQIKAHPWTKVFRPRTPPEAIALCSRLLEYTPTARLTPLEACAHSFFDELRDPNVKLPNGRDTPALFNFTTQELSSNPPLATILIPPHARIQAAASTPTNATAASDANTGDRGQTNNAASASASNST

Cc1ncsc1-c1ccc([C@H](C)NC(=O)[C@@H]2C[C@@H](O)CN2C(=O)[C@@H](NC(=O)CNC(=O)c2ccc(F)c(-c3ccc(N4C[C@@H](C)N(C)[C@@H](C)C4)c(NC(=O)c4c[nH]c(=O)cc4C(F)(F)F)c3)c2)C(C)(C)C)cc1 [MS67] was tested, and the inhibition at 1 µM (Lck) was less than 10%, the inhibition at 1 µM (cSRC) was less than 10% and the inhibition at 1 µM (TAO2) was less than 10%. The inhibition at 1 µM (CaMKIIα) was less than 10%, the inhibition at 1 µM (Abl) was less than 10% and the inhibition at 1 µM (MAPK2) was less than 10%. For the same compound, the inhibition at 1 µM (PKA) was less than 10%, the inhibition at 1 µM (CHK2) was less than 10% and the inhibition at 1 µM (PAK4) was less than 10%. For the same compound, the inhibition at 1 µM (FGFR1) was less than 10%, the inhibition at 1 µM (Mnk2) was less than 10% and the inhibition at 1 µM (CDK1/cyclinB) was less than 10%. The inhibition at 1 µM (GSK3β) was less than 10%, the inhibition at 1 µM (Aurora-A) was less than 10% and the inhibition at 1 µM (KDR) was less than 10%. It also gave an inhibition at 1 µM (SGK) of less than 10%, an inhibition at 1 µM (SAPK2a) of less than 10% and an inhibition at 1 µM (JAK3) of less than 10%. It also gave an inhibition at 1 µM (EGFR) of less than 10%, an inhibition at 1 µM (Pim-2) of less than 10% and an inhibition at 1 µM (CDK2/cyclinA) of less than 10%. The inhibition at 1 µM (NEK2) was less than 10%, the inhibition at 1 µM (ROCK-I) was less than 10% and the inhibition at 1 µM (MAP4K4) was less than 10%. For the same compound, the inhibition at 1 µM (PKBα) was less than 10%, the inhibition at 1 µM (PDK1) was less than 10% and the inhibition at 1 µM (JNK1α1) was less than 10%. For the same compound, the inhibition at 1 µM (TRKA) was less than 10% and the Kd (von Hippel–Lindau (VHL)) was 140 ± 7.2 nM.
